Laboratory results as given in patent US12060408B2, “Screening assays, modulators and modulation of activation of Receptor for Advanced Glycation End-products (RAGE)” (Monash University, priority 2017, dated 2024).
“Also recorded” adds a separate entry of the source.

Columns and labels:
[1] = tested on: RAGE ligand-independent activation of RAGE by activated AT1R; experiment: Ang II-induced NFκB activation (p65 gene expression, SEAP reporter) in AT1R-CHO cells with RAGE constructs; assay type: cell-based, human
Protocol: Generation of Transgenic Chinese Hamster Ovary Cells
100 ng of AT1R-Rluc8 construct was transfected into CHO cells using Lipofectamine 2000 (Thermo). Stable transfectants were selected using G418. AT1R—CHO were then transiently transfected with RAGE constructs using Lipofectamine 2000 (Invitrogen) and incubated for 16 h. The Homo sapiens AGER transcript variant 1 coding sequence (NM_001136) was synthesised and cloned between the NheI and XbaI sites of pCIneo (Promega) to generate the vector pCIneo-RAGE. This plasmid was then used to generate a library of mutant AGER clones (NP_001127). Primers 1-RAGE-SP-5′ and mCherry-XhoI-NotI-3′ were used to amplify the coding sequence of mCherry from the vector pmCherry-C1. The resultant PCR product was then used as template for a second PCR using primers 2-RAGE-SP-5′ and mCherry-XhoI-NotI-3′. The PCR product generated was digested with NheI and NotI and inserted between the NheI and NotI sites of pCIneo to generate pCIneo-SP-mCherry. The sequence of the insert was confirmed by DNA sequencing (Micromon, Monash University). […]
(§1) Cellular Expression of Pro-Inflammatory Markers and Mediators by Quantitative Real-Time PCR
(§2) After 2 hours of exposure to Ang II (1 μM) or the RAGE ligand, S100A8/A9 (5 ng/ml) cells were placed in Trizol, mRNA extracted and cDNA synthesized. Changes in the gene expression of the NFκB subunit, p65 (RelA) or NFκB-activated target genes (e.g ICAM-1, VCAM-1) were estimated by quantitative real-time RT-PCR, performed using the TaqMan system based on real-time detection of accumulated fluorescence (ABI Prism 7700, Perkin-Elmer Inc, PE Biosystems, Foster City, CA, USA). Gene expression was normalized to 18S mRNA and reported as fold change compared to the level of expression in untreated control mice/cells, which were given an arbitrary value of 1.
Oligopeptides (Cherry-TAT (control), mCherry-TAT-RAGE362-404 and mCherry-S391A-TAT-RAGE362-404 were generated by transformation of the Escherichia coli strain ClearColi BL21 (DE3; Lucigen). A single transformed colony was inoculated into 50 ml 2YT medium containing 100 μg/ml ampicillin and the culture was grown overnight at 37° C. with shaking at 250 rev/min. 10 ml overnight culture was used to inoculate 1 litre 2YT medium containing 100 μg/ml ampicillin and the culture was grown at 37° C. with shaking at 250 rev/min. When the cultures reached an OD600 of 0.8, the temperature was shifted to 15° C. for 30 min after which protein expression was induced by the addition of 1 mM isopropyl β-D-1-thiogalacto-pyranoside (IPTG). Following the addition of IPTG the cultures were grown for ˜16 h at 15° C. with shaking at 250 rev/min. Cells were harvested by centrifugation (3500 g, 4° C., 20 min) and resuspended in ice-cold lysis buffer (50 mM Tris pH 7.4, 300 mM NaCl, 10 mM imidazole and 5 mM beta-mercaptoethanol). The resuspended cells were sonicated and insoluble material was pelleted by centrifugation (13 000 g, 4° C., 30 min). The supernatant was filtered (0.2 μm) and applied onto a gravity-flow column with a 1 ml Ni-NTA Agarose resin bed volume (Qiagen) pre-equilibrated with lysis buffer. After the supernatant was passed over the resin, the column was washed with 100 ml of wash buffer (20 mM imidazole, 50 mM Tris pH 7.4, 150 mM NaCl, 5 mM beta-mercaptoethanol). His-tagged TAT-mCherry and TAT-mCherry-RAGE peptides were eluted from the resin using elution buffer (250 mM imidazole, 50 mM Tris pH 7.4, 150 mM NaCl, 5 mM beta-mercaptoethanol). […]

[2] = tested on: primary murine aortic endothelial cells (PMAEC); experiment: Expression of pro-inflammatory markers by real-time RT-PCR in primary murine aortic endothelial cells; assay type: cell-based, mouse
Protocol: Primary aortic endothelial cells (PMAEC) were isolated from the aortae of (wild-type) C57bl6 mice and AGER KO mice and cultured in Dulbecco's modified Eagle's medium (DMEM)/F12 endothelial cell growth supplement (ECGS) supplemented media. Chinese Hamster Ovary (CHO) cells were cultured using F12 media (10% FCS with 2 mM glutamine). Human microvascular endothelial cells (HMEC) were cultured in MCDB 131 medium (10% FCS with 10 mM glutamine, EGF and hydrocortisone).
as §1, §2
Selective Silencing of Gene Expression Using siRNA
PMAEC from C57b/6 mice were also transfected with siRNA to RAGE (2 nM) Ambion, ID:s62119), p65 (RelA) (10 nM; Ambion, ID:s72857), MyD88 (10 nM; Ambion. ID:s201719), PKCζ (10 nM; Ambion, ID:s71716), IQGAP-1, Ambion, ID:s78119), Diaph1 (10 nM; sense5′-[…], antisense 3′-[…]; Invitrogen) or scrambled control #1 (2 nM or 10 nM; Ambion) using Lipofectamine RNAiMAX (Invitrogen) as per manufacturer's instructions. Cells were allowed to recover in media containing 10% FBS for 16 hours prior to treatment with 1 μM Ang II or 5 ng/ml of the RAGE ligand, S100A8/A9, as a signalling control.

Row | Substance | inhibition of Ang II-dependent p65 induction after pre-treatment with wild-type RAGE362-404 peptide ([1]; AT1R-CHO cells) | inhibition of Ang II-dependent p65 induction with subsequent wild-type RAGE362-404 in thousand-fold excess ([1]; AT1R-CHO cells) | inhibition of Ang II-induced p65 and PCNA gene expression in the absence of targets for RAGE phosphorylation ([1]; AT1R-CHO cells transfected with full length S391Q-cRAGE) | ability of the RAGE construct to be activated and mediate pro-inflammatory signalling in response to Ang II ([1]; construct expressed in AT1R-CHO cells, no wild-type RAGE) | inhibition of RAGE ligand-independent activation of wild-type RAGE by activated AT1R ([1]; summary statement, cell system not given) | inhibition of VCAM-1 induction in response to Ang II or S100A8/A9 ([2]; PMAEC endogenously replete in RAGE) | activation of p65-NFκB ([1]; AT1R-CHO cells expressing full-length human RAGE, 1 μM) | expression of p65-NFκB / NFκB activation ([1]; AT1R-CHO cells without RAGE, 1 μM) | induction of pro-inflammatory genes ([2]; PMAEC from AGER KO mice) | markers of canonical or non-canonical activation of NFκB ([2]; PMAEC from AGER KO mice) | canonical and non-canonical signalling downstream of NFκB (CXCL2, CXCL12) ([2]; PMAEC from C57bl6 mice) | expression of pro-inflammatory genes (ICAM-1, VCAM-1, TNFα, MCP-1) ([2]; PMAEC from C57bl6 mice, Ang II 1 μM or S100A8/A9) | NFκB-dependent induction of VCAM-1 gene expression ([2]; PMAEC with AGER expression silenced using siRNA)
1 | L362WQRRQRRGEERKAPENQEEEEERAELNQAEEPEAGESSTGGP404 (LWQRRQRRGEERKAPENQEEEEERAELNQAEEPEAGESSTGGP; listed as Homo sapiens) [S391A-RAGE362-404, S391A mutant RAGE cytosolic tail; non-functional substitute for RAGE] | not reversed | observed | maintained; also recorded: inhibitory effects | not activated | inhibits | inhibitory effect |  |  |  |  |  |  | 
2 | angiotensin II (DRVYIHPF) [Ang II, cognate ligand of AT1R] |  |  |  |  |  |  | able to induce activation | unable to induce | does not lead to the induction | does not lead to | induction of both canonical and non-canonical signalling | increased expression | preventing
